# Source: patent US20160038518A1, “METHODS FOR TREATING PSORIASIS AND VASCULAR INFLAMMATION” (VASCULAR BIOGENICS LTD., priority 2012, published 2016)
# Where “and” joins values, the source holds several entries; their conditions need not be identical. Identical values can stand only once.
# Legend:
# [1] = system: LPS and Pam3CSK4 signaling; test: LPS and Pam3CSK4 signaling in human monocytes; type: cell-based; details: FIG. 1B
# [2] = system: inflammation associated with the breast implants; test: 18-FDG PET/CT of a patient with breast implants; type: in vivo, human; details: one patient, 20 mg/day, 12 weeks, FIG. 6
# Protocol: A patient with breast implants was treated with VD-201 at 20 mg/day for 12 weeks. PET-CT scans were done at baseline and at 12 weeks, using positron emission computed tomography (PET/CT) imaging quantifying 18-fluorodeoxyglucose (18-FDG) uptake as a TBR as described in Example 1.
# [3] = system: moderate to severe plaque psoriasis; test: randomized, double-blind Phase II clinical study in plaque psoriasis (PGA, PtGA, PASI); type: in vivo, human; details: for average reduction of PASI score: 12 weeks
# Protocol: Patients were screened for eligibility and, up to 28 days later, at the baseline visit, randomized to one of three treatment groups (1:1:1): VB-201 20 mg/day: VB-201 80 mg/day: placebo/day. Patients consumed 2 capsules per day (VB-201 20 mg+placebo, VB-201 40 mg+40 mg, or 2× placebo). To ensure that the treatment assignments were concealed, all patients received 2 matching capsules of VB-201 or placebo.
# The efficacy analyses were performed on the data from a modified intention-to-treat (MITT) population (defined as all patients randomized who received at least one dose of medication and had at least one efficacy evaluation). The safety analyses were performed on all randomized patients who received at least one dose of the drug.
# A randomized, double-blind Phase II clinical study was performed in subjects with moderate to severe plaque psoriasis, in order to determine the efficacy of VB-201 in treating this condition. […] Patients underwent a wash-out period following any previous treatments. After screening and establishment of a baseline, eligible subjects were randomly assigned to receive 20 mg per day VB-201, 80 mg per day VB-201 or a daily placebo, for a period of 12 weeks.
# Doses were administered orally at breakfast time with food. The maximal dose of VB-201 (80 mg/day) was determined according to earlier tolerability results (see, e.g., Example 4 of WO2011/083465).
# Efficacy of each dosage level of VB-201 relative to placebo was determined according to the percentage of patients which achieved at least a 50% or 75% improvement over baseline PASI score at week 12.
# Statistical comparisons were performed using a two-sided comparison with a 5% level of significance. All analyses were performed using Statistical Analysis Software (SAS®) Version 9.2.
# Categorical analyses of Physician's Global Assessment and Patient's Psoriasis Global Assessment scores at Baseline, Week 8 and Week 12 were analyzed.
# The Physician's Global Assessment (PGA) score was based on a 5-point scale with possible outcomes 0=clear, 1=almost clear, 2=mild, 3=moderate and 4=severe.
# The Patient's Psoriasis Global Assessment (PtGA) score was based on a 6-point scale with possible outcomes 0=clear, 1=almost clear, 2=mild, 3=moderate, and 4 severe and 5=worst psoriasis has ever been.
# The analyses that follow use the categorical nature of the PGA and PtGA, i.e. the 5-point or 6-point ordered scale which was considered more relevant than a continuous approach.
# The proportion of patients with baseline, week 8 and week 12 PGA scores 0-3 vs. 4 (Clear or Almost Clear or Mild or Moderate vs. Severe) and PtGA scores of 0-2 vs. 3-5 (Clear or Almost Clear or Mild vs. Moderate or Severe or Worse).
# Pairwise comparisons between placebo and each active dose group was made using Fisher's exact tests at the 5% level of significance.
smiles,measurement,setting,value
"CCCCCCCCCCCCCCCCOC[C@H](COP(=O)([O-])OCC[N+](C)(C)C)OCCCCC(=O)O [VB-201, 1-hexadecyl-2-(4′-carboxy)butyl-sn-glycero-3-phosphocholine]",inhibition of LPS and Pam3CSK4 signaling,[1],inhibition of LPS and Pam3CSK4 signaling
same,inflammation surrounding the breast implants (18-FDG uptake),[2],reduced inflammation surrounding the breast implants
same,PGA decrease from baseline to week 12 versus placebo,[3]; 20 mg,statistically superior to that with placebo
same,"PGA odds ratio, ordered logistic regression under the proportional odds model","[3]; 20 mg and 80 mg groups combined vs placebo, p=0.049, CI=1.00-3.65",1.91
same,Patient Global Assessment decrease from baseline to week 12 versus placebo,"[3]; 20 mg, p=0.12",trend for efficacy
same,"PGA 0-3 (No/Almost Clear/Mild/Mod), % of patients","[3]; 20 mg/day, Baseline",83.87%
same,"PGA 0-3 (No/Almost Clear/Mild/Mod), Freq.","[3]; 20 mg/day, Baseline",52
same,"PGA 4 (Severe), % of patients","[3]; 20 mg/day, Baseline",16.13%
same,"PGA 4 (Severe), Freq.","[3]; 20 mg/day, Baseline",10
same,"PtGA 0-2 (No/Almost Clear/Mild), % of patients","[3]; 20 mg/day, Baseline",11.29%
same,"PtGA 0-2 (No/Almost Clear/Mild), Freq.","[3]; 20 mg/day, Baseline",7
same,"PtGA 3-5 (Mod/Severs/Worse), % of patients","[3]; 20 mg/day, Baseline",88.71%
same,"PtGA 3-5 (Mod/Severs/Worse), Freq.","[3]; 20 mg/day, Baseline",55
same,"PGA 0-3 (No/Almost Clear/Mild/Mod), % of patients","[3]; 20 mg/day, Week 8",96.8%
same,"PGA 0-3 (No/Almost Clear/Mild/Mod), Freq.","[3]; 20 mg/day, Week 8",60
same,"PGA 4 (Severe), % of patients","[3]; 20 mg/day, Week 8",3.2% and 3.23%
same,"PGA 4 (Severe), Freq.","[3]; 20 mg/day, Week 8",2
same,"PtGA 0-2 (No/Almost Clear/Mild), % of patients","[3]; 20 mg/day, Week 8",32.26%
same,"PtGA 0-2 (No/Almost Clear/Mild), Freq.","[3]; 20 mg/day, Week 8",20
same,"PtGA 3-5 (Mod/Severs/Worse), % of patients","[3]; 20 mg/day, Week 8",67.74%
same,"PtGA 3-5 (Mod/Severs/Worse), Freq.","[3]; 20 mg/day, Week 8",42
same,"PGA 0-3 (No/Almost Clear/Mild/Mod), % of patients","[3]; 20 mg/day, Week 12/EOT",95.16%
same,"PGA 0-3 (No/Almost Clear/Mild/Mod), Freq.","[3]; 20 mg/day, Week 12/EOT",59
same,"PGA 4 (Severe), % of patients","[3]; 20 mg/day, Week 12/EOT",4.8% and 4.84%
same,"PGA 4 (Severe), Freq.","[3]; 20 mg/day, Week 12/EOT",3
same,"PtGA 0-2 (No/Almost Clear/Mild), % of patients","[3]; 20 mg/day, Week 12/EOT",30.65%
same,"PtGA 0-2 (No/Almost Clear/Mild), Freq.","[3]; 20 mg/day, Week 12/EOT",19
same,"PtGA 3-5 (Mod/Severs/Worse), % of patients","[3]; 20 mg/day, Week 12/EOT",69.35%
same,"PtGA 3-5 (Mod/Severs/Worse), Freq.","[3]; 20 mg/day, Week 12/EOT",43
same,PGA decrease from baseline to week 12 versus placebo,[3]; 80 mg,trend for efficacy
same,"Patient Global Assessment odds ratio, ordered logistic regression under the proportional odds model","[3]; 80 mg vs. placebo, p=0.047, CI=1.01-3.80",1.96
same,Patient Global Assessment decrease from baseline to week 12 versus placebo,"[3]; 80 mg, p=0.02",statistically superior to that with placebo
same,"PGA 0-3 (No/Almost Clear/Mild/Mod), % of patients","[3]; 80 mg/day, Baseline",79.31%
same,"PGA 0-3 (No/Almost Clear/Mild/Mod), Freq.","[3]; 80 mg/day, Baseline",46
same,"PGA 4 (Severe), % of patients","[3]; 80 mg/day, Baseline",20.69%
same,"PGA 4 (Severe), Freq.","[3]; 80 mg/day, Baseline",12
same,"PtGA 0-2 (No/Almost Clear/Mild), % of patients","[3]; 80 mg/day, Baseline",11.86%
same,"PtGA 0-2 (No/Almost Clear/Mild), Freq.","[3]; 80 mg/day, Baseline",7
same,"PtGA 3-5 (Mod/Severs/Worse), % of patients","[3]; 80 mg/day, Baseline",88.14%
same,"PtGA 3-5 (Mod/Severs/Worse), Freq.","[3]; 80 mg/day, Baseline",52
same,"PGA 0-3 (No/Almost Clear/Mild/Mod), % of patients","[3]; 80 mg/day, Week 8",91.53%
same,"PGA 0-3 (No/Almost Clear/Mild/Mod), Freq.","[3]; 80 mg/day, Week 8",54
same,"PGA 4 (Severe), % of patients","[3]; 80 mg/day, Week 8",8.5% and 8.47%
same,"PGA 4 (Severe), Freq.","[3]; 80 mg/day, Week 8",5
same,"PtGA 0-2 (No/Almost Clear/Mild), % of patients","[3]; 80 mg/day, Week 8",33.90%
same,"PtGA 0-2 (No/Almost Clear/Mild), Freq.","[3]; 80 mg/day, Week 8",20
same,"PtGA 3-5 (Mod/Severs/Worse), % of patients","[3]; 80 mg/day, Week 8",66.1%
same,"PtGA 3-5 (Mod/Severs/Worse), Freq.","[3]; 80 mg/day, Week 8",39
same,"PGA 0-3 (No/Almost Clear/Mild/Mod), % of patients","[3]; 80 mg/day, Week 12/EOT",93.22%
same,"PGA 0-3 (No/Almost Clear/Mild/Mod), Freq.","[3]; 80 mg/day, Week 12/EOT",55
same,"PGA 4 (Severe), % of patients","[3]; 80 mg/day, Week 12/EOT",6.8% and 6.78%
same,"PGA 4 (Severe), Freq.","[3]; 80 mg/day, Week 12/EOT",4
same,"PtGA 0-2 (No/Almost Clear/Mild), % of patients","[3]; 80 mg/day, Week 12/EOT",38.98%
same,"PtGA 0-2 (No/Almost Clear/Mild), Freq.","[3]; 80 mg/day, Week 12/EOT",23
same,"PtGA 3-5 (Mod/Severs/Worse), % of patients","[3]; 80 mg/day, Week 12/EOT",61.0% and 61.02%
same,"PtGA 3-5 (Mod/Severs/Worse), Freq.","[3]; 80 mg/day, Week 12/EOT",36
same,"correlation between VB-201 plasma levels and PASI, PGA and PtGA efficacy endpoints","[3]; PGA p=0.04, PtGA p=0.001, FIG. 10",statistically significant dose response
same,efficacy compared to placebo in subgroups (exploratory analyses),"[3]; baseline PASI 14.3-18.5, age ≦46 years, BSA 16%-24%, psoriasis up to 20 years, no previous immunosuppressants or biologicals, elevated baseline hs-CRP",greater trends for efficacy
same,time course of the efficacy endpoints,[3]; over 3 months of treatment,continued to improve overtime and had not reached a plateau at 3 months
same,average reduction of PASI score,[3]; patients in quartile 1 of trough level,about 18%
same,average reduction of PASI score,"[3]; patients in quartile 4 of trough level, p=0.009",about 45%
same,percent change from baseline in PASI at 12 weeks versus trough level,"[3]; sub-population with baseline PASI score of about 14.3 to about 18.5, FIG. 9",significantly dependent on the trough level of VB-201
same,PASI 50 response rates and reductions in BSA compared to placebo,[3]; week 12,Trends for favorable efficacy
